Source: patent publication US10123985B2, “Therapeutic strategies for treating mitochondrial disorders” (Whitehead Institute for Biomedical Research, priority 2015, dated 2018)
“Also recorded” adds a separate entry of the source.

Tests used:
143B cells [1] = assay: Proliferation assay of wild-type 143B cells treated with respiration inhibitors; type: cell-based; details: for Proliferation of rotenone treated 143B cells: asparagine
Protocol: (§1) 143B, A172, H1299, HeLa, U87 and MEF cells were cultured in Dulbecco's Modified Eagle's Medium (DMEM) (Gibco) supplemented with 10% fetal bovine serum (FBS) and penicillin-streptomycin. FL5.12 cells were cultured in the same medium and supplemented with 5 μg/mL recombinant mouse IL-3 (R&D Systems). 143B cybrid cell lines (WT Cybrid and CytB) were cultured in DMEM with 10% FBS, penicillin-streptomycin, and 0.1 mg/mL uridine. All cells incubated at 37° C. with 5% CO2.
(§2) Adherent cell lines growing in log phase were trypsinized, counted, and plated onto 6 well dishes (Corning) in 2 mL complete DMEM and incubated overnight. Initial seeding density was 2E4 cells per well for 143B, A172, H1299, HeLa, 143B WT Cybrid, and MEFs and 3E4 cells for 143B CytB and U87 cells. The following day, one plate of cells was counted to determine the initial cell count at the time of treatment. Cells were washed 2 times with 2 mL phosphate buffered saline (PBS) and 4 mL media premixed with the indicated treatments was added. FL5.12 cells, a suspension cell line, were washed 2 times in PBS and added directly to media containing the indicated treatments and 5 μg/mL recombinant mouse IL-3. Proliferation rate assay media was DMEM without pyruvate containing 10% dialyzed FBS, penicillin-streptomycin, and 0.1 mg/mL uridine, unless otherwise noted. For these cell lines at these seeding densities it was determined that for 4 days the cells maintained logarithmic proliferation (data not shown), therefore final cell counts were measured 4 days after treatment. Cells were counted using Cellometer Auto T4 Plus Cell Counter (Nexcelom Bioscience). Proliferation rate was determined using the following formula: Proliferation Rate (Doublings per day)=(log2(Final cell count (day 5)/Initial cell count (day 1))/4 (days)

143B cells [2] = assay: Measurement of NAD+/NADH (NAD/NADH Glo) in 143B cells with respiration inhibitors; type: cell-based; details: oligomycin with or without FCCP
Protocol: NAD^+/NADH measurements were done using a modified version of manufacturer instructions of NAD/NADH Glo Assay (Promega). Cells were plated and treated as for proliferation assays and cell extracts were taken 6 hours after treatment. For extraction, cells were quickly washed 3 times in ice cold PBS, extracted in 100 μL ice cold lysis buffer (1% Dodecyltrimethylammonium bromide (DTAB) in 0.2 N NaOH diluted 1:1 with PBS), and immediately frozen at −80° C. To measure NADH, 20 μL of sample was moved to PCR tubes and incubated at 75° C. for 30 min, where the basic conditions will selectively degrade NAD^+. To measure NAD^+, 20 μL of the samples was moved to PCR tubes containing 20 μL lysis buffer and 20 μL 0.4 N HCl and incubated at 60° C. for 15 min, where acidic conditions will degrade NADH. Following incubations, samples were allowed to equilibrate to room temperature and then quenched by neutralizing with 20 μL 0.25 M Tris in 0.2 N HCl (NADH) or 20 μL 0.5 M Tris base (NAD^+). Manufacturer instructions were followed thereafter to measure NAD^+/NADH.

143B cells [3] = assay: Mitochondrial oxygen consumption (Seahorse XF24), cells treated with respiration inhibitors; type: cell-based; details: oligomycin with or without FCCP
Protocol: Oxygen consumption rates were determined on a Seahorse Bioscience Extracellular Flux Analyzer (XF24). Cells were plated in Seahorse Bioscience 24 well plates at 6E4 cells per well in 100 μL complete DMEM, allowed to attach for 1 hour, and 500 μl complete DMEM was added before overnight incubation. The following day cells were washed 2 times in assay media: DMEM without phenol red or pyruvate containing 0.5% dialyzed FBS and 0.1 mg/mL uridine at pH 7.4 and incubated in 500 μL of the same media for the assay.

143B cells [4] = assay: 13C asparagine labelling, GCMS of aspartate and released asparagine; type: cell-based
Protocol: FIG. 26. […] (A) Proliferation rate was measured after 4 days in DMEM without pyruvate and the indicated media conditions. Untr; Untreated. AKB; 1 mM alpha-ketobutyrate. Asp; 20 mM aspartate. Asn; asparagine, with the indicated concentrations. (B) GCMS measurement of intracellular levels of aspartate after 24 hours from the indicated treatment conditions. Aspartate levels are shown as the log2 of the measured total ion count (TIC). (C) The proliferation rate from FIG. 26A and the aspartate levels from FIG. 26B were graphed against one another to show a correlation between aspartate levels and proliferation rate. Grey triangles are the untreated conditions, blue squares are the AKB conditions, and green dots are the 1 mM ASN conditions. (D) GCMS measurement of intracellular aspartate levels after a 24-hour incubation in untreated media or media treated with 1 mM ^13C asparagine. The bars are split to show the fraction of aspartate that is unlabeled (M+0) and the fraction of aspartate that is labeled with 4 ^13C carbons (M+4). (E) GCMS measurement of unlabeled (M+0) asparagine released into the media (de novo produced asparagine) after a 24-hour incubation in untreated media or media treated with 1 mM ^13C asparagine.
The mechanism by which extracellular asparagine treatment can restore intracellular aspartate levels was also investigated. First, we treated 143B cells with 1 mM asparagine containing four ^13C carbon atoms. […] The small fraction containing labeled aspartate was likely from ^13C aspartate contamination in the ^13C asparagine added to the media. […] One plausible mechanism by which providing the cells with extracellular asparagine would decrease intracellular aspartate consumption is through product inhibition of asparagine synthetase (ASNS) activity. Decreased ASNS activity would decrease aspartate consumption and therefore increased aspartate levels. To test this, we measured the release of unlabeled asparagine in the media of untreated cells or cells treated with 1 mM ^13C asparagine. […]

143B cells [5] = assay: Amino acid and TCA cycle metabolite GC-MS analysis, 143B cells; type: cell-based; details: for TCA metabolite, aspartate and glutamate pool sizes: wild-type 143B cells, respiration inhibitor alone
Protocol: 143B and 143B CytB cells were seeded at 400,000 cells/well in 6 well dishes overnight. The following day, cells were washed 2 times in PBS and media was changed to proliferation assay media with or without the indicated treatments. […] Soluble content was then dried under nitrogen gas. Polar samples were derivatized and measured as detailed in (Lewis). Relative metabolite abundances were determined by integrating ion peak area (Metran) and normalized to norvaline internal extraction standard.

143B CytB cells = assay: Proliferation assay of respiration-incompetent 143B CytB cybrid cells; type: cell-based; details: media supplemented with the substance; no pyruvate unless tested, uridine present
Protocol: FL5.12 cells were cultured in the same medium and supplemented with 5 μg/mL recombinant mouse IL-3 (R&D Systems). […] All cells incubated at 37° C. with 5% CO2.
as §2, with “Initial seeding density was 2E4 cells per well for 143B, A172, H1299, HeLa, 143B WT Cybrid, and MEFs and 3E4 cells for 143B CytB and U87 cells.” left out, “For these cell lines at these seeding densities it was determined that for 4 days the cells maintained logarithmic proliferation (data not shown), therefore final cell counts were measured 4 days after treatment.” left out

[6] = system: A549 lung carcinoma xenografts; assay: A549 xenograft study with metformin; type: in vivo, nude mice
Protocol: FIG. 27. In vivo mitochondrial inhibition inhibits cellular proliferation and decreases intracellular growth rate. (A) A549 xenografts in nude mice were treated with varying doses of the mitochondrial inhibitor, metformin, once a day by oral gavage at the indicated concentrations. LCMS measurement of (B) serum and (C) tumor metformin concentration for the indicated metformin treatment conditions. (D) GCMS measurement of intracellular aspartate levels in the tumors following 10 days of the indicated treatment. Aspartate levels are shown as aspartate total ion count (TIC) normalized to leucine TIC.
An in vivo correlation between mitochondrial inhibition and growth inhibition, and further, a correlation between the degree of growth inhibition and intracellular aspartate levels were shown in a xenograft study. A549 lung carcinoma cells were xenografted into nude mice, and the cells were allowed to grow until they formed a tumor 50 mm^3 in volume. When the tumors reached 50 mm^3, the mice were randomly sorted into three groups and treated once a day by oral gavage with vehicle or the mitochondrial inhibitor metformin (500 mg/kg or 1500 mg/kg).

Jurkat cells = assay: Proliferation assay (Cell Titer Glo, 5 days) of wild type and knock-out Jurkat cells; type: cell-based, human; details: 5-day treatment
Protocol: sgRNAs (oligonucleotide sequences are indicated above) were cloned into lentiCRISPR-v1 linearized with BsmBI by Gibson Assembly (NEB). sgRNA expressing vector along with lentiviral packaging vectors Delta-VPR and CMV VSVG were transfected into HEK-293T cells using the XTremeGene 9 transfection reagent (Roche). Similarly, for overexpression cell lines, cDNA vectors along with retroviral packaging vectors gag-pol and CMV VSV-G were transfected into HEK-293T cells. Media was changed 24 hours after transfection.

[7] = system: A172, H1299, HeLa, U87, FL5.12, and MEF cell lines; assay: Proliferation assay of a panel of cell lines treated with respiration inhibitors; type: cell-based; details: respiration inhibitor alone
Protocol: as §1, §2

[8] = system: Raji lymphoma and KMS-26 multiple myeloma cells; type: cell-based, human; details: 5-day treatment
Protocol: […]. Media was changed 24 hours after transfection.

[9] = 1 mM 13C asparagine, 24-hour incubation
[10] = metformin 500 mg/kg or 1500 mg/kg once a day by oral gavage

For `N#CC(C#N)=NNc1ccc(OC(F)(F)F)cc1` [FCCP, carbonyl cyanide-4-(trifluoromethoxy)phenylhydrazone, reference compound], the “Proliferation rate of oligomycin treated 143B cells” value (143B cells [1]; oligomycin with or without FCCP) was “increased proliferation of oligomycin treated cells”, the “NAD+/NADH ratio of oligomycin treated 143B cells” value (143B cells [2]) was “increased” and the “Oxygen consumption of oligomycin treated cells” value (143B cells [3]) was “increased”.
With `NC(=O)C[C@H](N)C(=O)O` [^13C asparagine] the Intracellular aspartate levels (143B cells [4]; [9]) was “did increase intracellular aspartate levels” and the “Labelling of intracellular aspartate pool” value (143B cells [4]; [9]) was “nearly all of the intracellular aspartate pool was unlabeled (M+0)”.
In the case of `NC(=O)C[C@H](N)C(=O)O` [asparagine], the “Proliferation of rotenone treated 143B cells” value (143B cells [1]; high doses of rotenone) is reported as “not able to restore proliferation”, the “Proliferation of rotenone treated 143B cells” value (143B cells [1]; low doses of rotenone) is reported as “sufficient to restore proliferation; also recorded: restores intracellular aspartate levels and proliferation in rotenone treated cells” and the “Release of unlabeled (de novo produced) asparagine into the media” value (143B cells [4]; 1 mM 13C asparagine versus untreated, 24 hours) is reported as “produce less asparagine”. For the same compound, the “Restoration of intracellular aspartate compared to AKB” value (143B cells [5]; rotenone treated 143B cells, 1 mM asparagine) was “incomplete compared to AKB” and the Intracellular aspartate levels (143B cells [5]; rotenone treated 143B cells, 24 hours, AKB or 1 mM asparagine) was “increased intracellular aspartate; also recorded: restores intracellular aspartate levels and proliferation in rotenone treated cells”.
With `COC(=O)CCC(=O)C(=O)OC` [dimethyl α-ketoglutarate, reference compound] the “Proliferation rate of 143B CytB cells” value (143B CytB cells) was “able to restore some proliferation to 143B CytB cells, albeit at a much lower capacity than aspartate”.
With `Nc1nc2nc[nH]c2c(=O)[nH]1` [guanine, reference compound] the “Proliferation rate of 143B CytB cells” value (143B CytB cells) was “somewhat toxic”.
`O=c1[nH]cnc2nc[nH]c12` [hypoxanthine, reference compound] was tested, and the “Proliferation rate of 143B CytB cells” value (143B CytB cells) was “no effect on proliferation”.
In the case of `CN(C)C(=N)N=C(N)N` [metformin], the “Normalized intracellular aspartate levels in tumors” value ([6]; 10 days of treatment, aspartate TIC normalized to leucine TIC) is reported as “decrease in a dose-dependent manner”, the “Tumor concentration of metformin” value ([6]; escalating doses of metformin) is reported as “increased tumor concentration of metformin” and the “Serum concentrations of metformin” value [6, 10] is reported as “at concentrations that would be therapeutically relevant and tolerable in humans”. The Tumor growth [6, 10] was “dose dependently inhibited tumor growth” and the “Sensitivity of GOT1-null versus wild-type cells to other ETC inhibitors” value (Jurkat cells) was “substantially more sensitive; also recorded: GOT1-null cells die”.
`CC[C@H]1/C=C/C=C/C[C@@H](C)[C@H](O)[C@@](C)(O)C(=O)[C@@H](C)[C@H](O)[C@@H](C)C(=O)[C@@H](C)[C@H](O)[C@@H](C)/C=C/C(=O)O[C@@H]2[C@H](C)[C@H](CC1)O[C@]1(CC[C@H](C)[C@H](C[C@@H](C)O)O1)[C@H]2C` [oligomycin, reference compound] was tested, and the “Proliferation of cell line panel” value [7] was “blocked proliferation” and the “TCA metabolite, aspartate and glutamate pool sizes” value (from here on “TCA metabolite”) (143B cells [5]) was “decreases in TCA metabolites and aspartate, but not glutamate”.
In the case of `C/C=C(\C)[C@H](O)[C@H](C)/C=C(C)/C=C/C/C(C)=C/Cc1nc(OC)c(OC)c(O)c1C` [piericidin, reference compound], the “Viability of GOT1-null KMS-26 and Raji cells with other mitochondrial toxins” value [8] is reported as “GOT1-null KMS-26 and Raji cells die” and the “Sensitivity of GOT1-null versus wild-type cells to other ETC inhibitors” value (Jurkat cells) is reported as “GOT1-null cells die; also recorded: substantially more sensitive”.
In the case of `C=C(C)[C@H]1Cc2c(ccc3c2O[C@@H]2COc4cc(OC)c(OC)cc4[C@@H]2C3=O)O1` [rotenone, reference compound], the “Proliferation of cell line panel” value [7] is reported as “blocked proliferation” and the “TCA metabolite” value (143B cells [5]) is reported as “decreases in TCA metabolites and aspartate, but not glutamate”.
For antimycin [reference compound], the “Viability of GOT1-null KMS-26 and Raji cells with other mitochondrial toxins” value [8] was “GOT1-null KMS-26 and Raji cells die”, the “Proliferation of cell line panel” value [7] was “blocked proliferation” and the “TCA metabolite” value (143B cells [5]) was “decreases in TCA metabolites and aspartate, but not glutamate”. For the same compound, the “Sensitivity of GOT1-null versus wild-type cells to other ETC inhibitors” value (Jurkat cells) was “GOT1-null cells die; also recorded: substantially more sensitive”.
